Data published in patent US10239840B2, “Benzoazepine derivatives” (ViiV HEALTHCARE UK LIMITED, priority 2015, dated 2019).

System: HIV
Experiment: MT4 assay, antiviral HIV activity
Format: cell-based
Settings: MT-4 cells (HTLV-1 transformed), read-out at 96 hours with cell titer glo
Method: Antiviral HIV activity and cytotoxicity values for compounds of the invention from Table 1 were measured in parallel in the HTLV-1 transformed cell line MT-4 based on the method previously described (Hazen et al., 2007, In vitro antiviral activity of the novel, tyrosyl-based human immunodeficiency virus (HIV) type 1 protease inhibitor brecanavir (GW640385) in combination with other antiretrovirals and against a panel of protease inhibitor-resistant HIV (Hazen et al., “In vitro antiviral activity of the novel, tyrosyl-based human immunodeficiency virus (HIV) type 1 protease inhibitor brecanavir (GW640385) in combination with other antiretrovirals and against a panel of protease inhibitor-resistant HIV”, Antimicrob. Agents Chemother. 2007, 51: 3147-3154; and Pauwels et al., “Sensitive and rapid assay on MT-4 cells for the detection of antiviral compounds against the AIDS virus”, J. of Virological Methods 1987, 16: 171-185).
Luciferase activity was measured 96 hours later by adding a cell titer glo (Promega, Madison, Wis.). Percent inhibition of cell protection data was plotted relative to no compound control. Under the same condition, cytotoxicity of the compounds was determined using cell titer Glo™ (Promega, Madison, Wis.). IC50s were determined from a 10 point dose response curve using 3-4-fold serial dilution for each compound, which spans a concentration range >1000 fold.
These values are plotted against the molar compound concentrations using the standard four parameter logistic equation: y=((Vmax*x^n)/(K^n+x^n)+Y2
Y2=minimum γ n=slope factor
Vmax=maximum γ x=compound concentration [M]

## Cc1c(-c2c(C)c3c(c(C)c2[C@H](OC(C)(C)C)C(=O)O)CCN(C2CCCCC2)CC3)cc(F)c2c1CCCO2 (atropisomer, axis not shown; (M)) [Example 18, (2S)-2-(tert-butoxy)-2-((M)-3-cyclohexyl-8-(8-fluoro-5-methylchroman-6-yl)-6,9-dimethyl-2,3,4,5-tetrahydro-1H-benzo[d]azepin-7-yl)acetic Acid]
  IC50: 13 nM
